Assay results from publication PMC8041284, “Tunable Methacrylamides for Covalent Ligand Directed Release Chemistry” (Journal of the American Chemical Society, 2021).

Each compound was assayed against BTK (Homo sapiens, UniProt Q06187) (assay: biochemical). Conditions: read-out: BTK inhibition (%).
BTK, sequence (Q06187 402-655 limits assumed): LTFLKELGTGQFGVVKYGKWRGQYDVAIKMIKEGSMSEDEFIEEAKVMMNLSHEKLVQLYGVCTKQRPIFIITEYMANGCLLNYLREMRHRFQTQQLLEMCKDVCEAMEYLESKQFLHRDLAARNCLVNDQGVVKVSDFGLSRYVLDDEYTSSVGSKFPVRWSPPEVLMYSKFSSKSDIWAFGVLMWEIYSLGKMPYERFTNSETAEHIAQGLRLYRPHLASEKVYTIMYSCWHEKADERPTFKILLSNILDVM
For `C[C@H]1CC(=O)C[C@@H]2CC[C@H]3[C@@H]4CC[C@H](O)[C@@]4(C)CC[C@@H]3[C@]21C` [PCM-0214988], the inhibition at 10 µM was -20.2%.

Same assay, conditions: read-out: BTK inhibition (%), 0.75 uM BTK, […] probe 3l, 15 min preincubation
With `N#C/C(=C\c1ccc(O)c(O)c1)C(=O)NCc1ccccc1` [PCM-0094962] the inhibition at 10 µM was 53.1%.
`CC(C)(CO)[C@@H](O)C(=O)NCCC(=O)NCCSSCCNC(=O)CCNC(=O)[C@H](O)C(C)(C)CO` [PCM-0216020] was tested, and the inhibition at 10 µM was -28.9%.
For `CCS(=O)(=O)N1CCC(C(C)n2c(C)c(C(=O)NCc3c(OC)cc(C)[nH]c3=O)c3ccccc32)CC1` (stereo not shown) [PCM-0215486], the inhibition at 10 µM was -3.1%.
For `CNCc1ccc(-c2cc(-c3nc(-c4ccc(S(=O)(=O)C(C)C)cc4)cnc3N)on2)cc1` [PCM-0213360], the inhibition at 10 µM was 17.9%.
`CC(C)(C)C(=O)OCOP(=O)(COCCn1cnc2c(N)ncnc21)OCOC(=O)C(C)(C)C` [PCM-0095170] gave an inhibition at 10 µM of 3.9%.
`NCC1OC(OC2C(N)CC(N)C(OC3OC(CO)C(O)C(N)C3O)C2O)C(N)CC1O` (stereo not shown) [PCM-0086125] gave an inhibition at 10 µM of 21.3%.
`CC(ONC(=O)c1cc(C(F)(F)F)cc(C(F)(F)F)c1)C(=O)Nc1ccc(Cl)cc1` (stereo not shown) [PCM-0215433] gave an inhibition at 10 µM of 7.7%.
Compound `Cc1nnc(NS(=O)(=O)c2ccc(N)cc2)s1` [PCM-0086420] has an inhibition at 10 µM of -10.9%.
`COc1cc(OC)c(C(=O)CCCN2CCCC2)c(OC)c1` [PCM-0085999] gave an inhibition at 10 µM of -12.5%.
`NCC(O)c1ccc(O)cc1` (stereo not shown) [PCM-0064912] showed an inhibition at 10 µM of 2.3%.
`COc1cc(OC)c(NC(=O)Nc2cc(C)on2)cc1Cl` [PCM-0095491] showed an inhibition at 10 µM of 10.9%.
Work on `Oc1c(Cl)cc(Cl)c2cccnc12` [PCM-0085913] yielded an inhibition at 10 µM of -0.8%.
In the case of `CN(C)CCCNC(=O)c1ccc(-c2cc(O)c3ncccc3c2)cc1` [PCM-0215418], the inhibition at 10 µM is reported as 19.3%.
For `O=C(Nc1ccc(S(=O)(=O)Nc2ccccc2Cl)c(Cl)c1)c1ccccn1` [PCM-0095621], the inhibition at 10 µM was -21.6%.
Compound `COc1cc2c(Oc3ccc4[nH]c(C)cc4c3F)ccnc2cc1OCC1(N)CC1` [PCM-0216115] has an inhibition at 10 µM of 39.4%.
For `O=C1[C@H]2CCCC[C@H]2C(=O)N1CCCCN1CCN(c2nsc3ccccc23)CC1` [PCM-0216064], the inhibition at 10 µM was -9.3%.
In the case of `CO[C@@H]1[C@@H](O[C@@H]2O[C@H](C)[C@@H](O[C@H]3C[C@@](C)(O)[C@@H](O)[C@H](C)O3)[C@H](N(C)C)[C@H]2O)[C@@H](CC=O)C[C@@H](C)[C@@H](O[C@H]2CC[C@H](N(C)C)[C@@H](C)O2)/C=C/C=C/C[C@@H](C)OC(=O)C[C@H]1OC(C)=O` [PCM-0214867], the inhibition at 10 µM is reported as 14%.
`CC(=O)O[C@H]1C(=O)[C@@]2(C)[C@H]([C@H](OC(=O)c3ccccc3)[C@]3(O)C[C@H](O)C(C)=C1C3(C)C)[C@]1(OC(C)=O)CO[C@@H]1C[C@@H]2O` [PCM-0215022] was tested, and the inhibition at 10 µM was -17.1%.
For `CCOc1cc(C(C)(C)C)ccc1C1=N[C@@](C)(c2ccc(Cl)cc2)[C@@](C)(c2ccc(Cl)cc2)N1C(=O)N1CCN(CCCS(C)(=O)=O)CC1` [PCM-0215548], the inhibition at 10 µM was 16.2%.
In the case of `N#CC[C@@H](C1CCCC1)n1cc(-c2ncnc3[nH]ccc23)cn1` [PCM-0095369], the inhibition at 10 µM is reported as 15.9%.
Compound `CCCCCCCCCCCC(=O)O` [PCM-0214847] has an inhibition at 10 µM of -69.3%.
`NS(=O)(=O)c1cc2c(cc1Cl)NC(C(Cl)Cl)NS2(=O)=O` (stereo not shown) [PCM-0086441] showed an inhibition at 10 µM of -14%.
In the case of `CC(=O)Oc1cc2c(s1)CCN(C(C(=O)C1CC1)c1ccccc1F)C2` (stereo not shown) [PCM-0095029], the inhibition at 10 µM is reported as -2.3%.
With `NS(=O)(=O)c1cc(C(=O)O)c(NCc2ccco2)cc1Cl` [PCM-0085991] the inhibition at 10 µM was -2.3%.
With `O=C(O)CCC(=O)Nc1ccc(Br)cn1` [PCM-0215427] the inhibition at 10 µM was -3.4%.
`CC(=O)N1CCN(CCOc2ccc(C3CCN(C4=Nn5c(nnc5C(F)(F)F)CC4)CC3)cc2)CC1` [PCM-0215224] showed an inhibition at 10 µM of -17%.
For `Cc1ccnc2c1NC(=O)c1cccnc1N2C1CC1` [PCM-0090346], the inhibition at 10 µM was -3.1%.
With `CC(C)OC(=O)OCOP(=O)(CO[C@H](C)Cn1cnc2c(N)ncnc21)OCOC(=O)OC(C)C` [PCM-0214620] the inhibition at 10 µM was -14.8%.
With `C[C@]12CCC(=O)C=C1[C@@H]1C[C@@H]1[C@H]1[C@@H]3[C@@H]4C[C@@H]4[C@@]4(CCC(=O)O4)[C@@]3(C)CC[C@@H]12` [PCM-0214617] the inhibition at 10 µM was -15.6%.
Compound `COc1ccc(C2=N[C@H](c3ccc(Cl)cc3)[C@H](c3ccc(Cl)cc3)N2C(=O)N2CCNC(=O)C2)c(OC(C)C)c1` [PCM-0215386] has an inhibition at 10 µM of -27.8%.
With `O=S(=O)(Cl)c1ccc(-c2ccccc2)cc1` [PCM-0216165] the inhibition at 10 µM was -8.5%.
`CCOc1cc([C@@H](CS(C)(=O)=O)N2C(=O)c3cccc(NC(C)=O)c3C2=O)ccc1OC` [PCM-0095620] showed an inhibition at 10 µM of 9%.
`COC(=O)C1=CO[C@@H](O)[C@@H]2C(CO)=CC[C@H]12` [PCM-0065168] showed an inhibition at 10 µM of -1.6%.
Compound `O=C1Cc2c([nH]c3ccc(Br)cc23)-c2ncccc2N1` [PCM-0215289] has an inhibition at 10 µM of -2.1%.
With `CC(/C=C/C=C(\C)C(=O)O[C@@H]1O[C@H](CO)[C@@H](O)[C@H](O)[C@H]1O)=C\C=C\C=C(C)\C=C\C=C(/C)C(=O)O[C@@H]1O[C@H](CO[C@@H]2O[C@H](CO)[C@@H](O)[C@H](O)[C@H]2O)[C@@H](O)[C@H](O)[C@H]1O` [PCM-0216484] the inhibition at 10 µM was 16.2%.
For `COc1ccc(Cl)cc1NC(=O)Nc1cc(C)nc2ccccc12` [PCM-0095597], the inhibition at 10 µM was 9%.
`COc1cc(C=O)ccc1O` [PCM-0094868] gave an inhibition at 10 µM of 21.8%.
In the case of `CC(=O)N[C@H]1[C@H]([C@H](O)[C@H](O)CO)OC(C(=O)O)=C[C@@H]1N=C(N)N` [PCM-0095451], the inhibition at 10 µM is reported as -4.3%.
`C[C@H](Cn1cnc2c(N)ncnc21)OCP(=O)(O)O` [PCM-0090661] was tested, and the inhibition at 10 µM was -11.7%.
`COc1cc2c(cc1OC(C)C)[C@H](c1ccc(Cl)cc1)N(c1ccc(N(C)CC3CCC(N4CCN(C)C(=O)C4)CC3)cc1)C(=O)C2` (stereo partly shown) [PCM-0215723] gave an inhibition at 10 µM of 57.9%.
With `O=c1cc(CN2CCOCC2)occ1OCCCCCSc1ccnc2cc(C(F)(F)F)ccc12` [PCM-0095730] the inhibition at 10 µM was -34.7%.
Compound `COc1ccc([C@@H]2CC(=O)c3c(O)cc(O[C@@H]4O[C@H](CO[C@@H]5O[C@@H](C)[C@H](O)[C@@H](O)[C@H]5O)[C@@H](O)[C@H](O)[C@H]4O)cc3O2)cc1OC` [PCM-0215169] has an inhibition at 10 µM of 5.4%.
Work on `Cc1nc(C#Cc2ccnc(Cl)c2)c(C)n1-c1ccc(OC(F)(F)F)cc1` [PCM-0095504] yielded an inhibition at 10 µM of -55.3%.
With `Cc1ccc(Sc2cncc3sc(C(N)=O)cc23)cc1` [PCM-0095339] the inhibition at 10 µM was -3.9%.
`O=c1cc(-c2ccc(O)cc2)oc2c([C@@H]3O[C@H](CO)[C@@H](O)[C@H](O)[C@H]3O)c(O)cc(O)c12` [PCM-0216454] gave an inhibition at 10 µM of 26.3%.
`O=C(NCc1ccncc1)C12CC3CC(C1)CC(c1ccc(Cl)cc1)(C3)C2` [PCM-0215553] showed an inhibition at 10 µM of -6.9%.
`CCCCc1ccc(O)cc1O` [PCM-0216578] gave an inhibition at 10 µM of -8.5%.
With `COc1cccc(/C=N/N(C(=O)C(F)(F)F)c2ccc(C)cc2C)c1` [PCM-0216073] the inhibition at 10 µM was 13.9%.
With `N=C(N)c1ccc2cc(OC(=O)c3ccc(N=C(N)N)cc3)ccc2c1` [PCM-0095060] the inhibition at 10 µM was -1.6%.
Work on `CCC(=O)OCC(=O)[C@@]1(OC(=O)CC)[C@@H](C)C[C@H]2[C@@H]3CCC4=CC(=O)C=C[C@]4(C)[C@@]3(F)[C@@H](O)C[C@@]21C` [PCM-0095138] yielded an inhibition at 10 µM of -9.3%.
`CC(=O)c1cc(O)ccc1O` [PCM-0216293] showed an inhibition at 10 µM of -1.5%.
`CS(=O)(=O)Nc1ccc([N+](=O)[O-])cc1Oc1ccccc1` [PCM-0064916] gave an inhibition at 10 µM of 3.4%.
With `NCCCCCN` [PCM-0216205] the inhibition at 10 µM was 14.7%.
`O=C1CCc2ccc(O)cc2N1` [PCM-0215070] was tested, and the inhibition at 10 µM was 9.3%.
`CCCCC1OC(=O)c2ccccc21` (stereo not shown) [PCM-0216506] was tested, and the inhibition at 10 µM was 6.9%.
Compound `CC(C)=CCC/C(C)=C/CC/C(C)=C/CC/C(C)=C/CC1=C(C)C(=O)c2ccccc2C1=O` [PCM-0216051] has an inhibition at 10 µM of 2.3%.
`COCCOc1cnc2ccn([C@H](C)c3nnc4c(F)cc(-c5cnn(C)c5)cn34)c(=O)c2c1` [PCM-0215653] was tested, and the inhibition at 10 µM was 15.9%.
`Brc1ccc2[nH]ccc2c1` [PCM-0216166] showed an inhibition at 10 µM of -11.6%.
`C=C1CCC[C@]2(C)C=C3OC(=O)C(C)=C3C[C@@H]12` [PCM-0215796] was tested, and the inhibition at 10 µM was -4.1%.
`O=c1cc(-c2cccc3c2Sc2ccccc2S3)oc(N2CCOCC2)c1` [PCM-0095067] was tested, and the inhibition at 10 µM was -12.4%.
Work on `Cc1cc(O)cc(O[C@@H]2O[C@H](CO)[C@@H](O)[C@H](O)[C@H]2O)c1` [PCM-0214958] yielded an inhibition at 10 µM of -10.1%.
`CCOC(=O)Nc1ccc(NCc2ccc(F)cc2)nc1N` [PCM-0065288] showed an inhibition at 10 µM of -8.6%.
For `CCC[C@H](N[C@@H](C)C(=O)N1[C@H](C(=O)O)C[C@@H]2CCCC[C@@H]21)C(=O)OCC` [PCM-0095182], the inhibition at 10 µM was -4.3%.
`O=C(NCC1(c2nc(-c3ccccc3)cs2)CCOCC1)c1cccc(-c2noc(C(F)(F)F)n2)c1` [PCM-0215333] gave an inhibition at 10 µM of -9.3%.
In the case of `O=C(NCCCNc1nc(Nc2cccc(NC(=O)N3CCCC3)c2)ncc1I)c1cccs1` [PCM-0095061], the inhibition at 10 µM is reported as 60%.
Work on `CC(=O)OCOC(=O)CN(CC(=O)OCOC(C)=O)c1ccccc1OCCOc1ccccc1N(CC(=O)OCOC(C)=O)CC(=O)OCOC(C)=O` [PCM-0215314] yielded an inhibition at 10 µM of -27.8%.
With `CC(O)(P(=O)(O)O)P(=O)(O)O` [PCM-0086550] the inhibition at 10 µM was -27.2%.
In the case of `COc1ccc(-n2c(SCCCN3C(=O)c4cccc5cccc(c45)C3=O)nnc2-c2ccncc2)cc1` [PCM-0215315], the inhibition at 10 µM is reported as -9.3%.
`O=c1c(-c2ccc(O)cc2)coc2c([C@@H]3O[C@H](CO)[C@@H](O)[C@H](O)[C@H]3O)c(O)ccc12` [PCM-0094877] showed an inhibition at 10 µM of -0.8%.
Compound `O=CO` [PCM-0216152] has an inhibition at 10 µM of -12.4%.
Work on `CN1c2ccccc2C(=O)Nc2cnc(Nc3ccc(N4CCC(O)CC4)cc3)nc21` [PCM-0215745] yielded an inhibition at 10 µM of 93.8%.
Work on `O=C(c1ccc(C(=O)N2CCC(N3CCCC3)CC2)c(Nc2ccccc2)c1)N1CCC(N2CCCC2)CC1` [PCM-0095781] yielded an inhibition at 10 µM of -10.8%.
Work on `C/C=C(/C)C(=O)OC(C)(C)[C@@H]1Cc2c(ccc3ccc(=O)oc23)O1` [PCM-0216607] yielded an inhibition at 10 µM of -23.9%.
`CNC(=O)c1cc(Oc2ccc(NC(=O)Nc3cc(C(C)(C)C)nn3-c3ccc4ncccc4c3)c(F)c2)ccn1` [PCM-0095514] was tested, and the inhibition at 10 µM was 98.6%.
Work on `CCCCCCCCCC(C)O` (stereo not shown) [PCM-0216633] yielded an inhibition at 10 µM of -30.1%.
